Data published in patent publication US9029360B2, “Pyrazolopyrimidines as metabotropic glutamate 5 receptor antagonists” (Boehringer Ingelheim International GmbH, priority 2012, dated 2015).

Columns and labels:
human mGlu5a receptor = human mGlu5a receptor (Homo sapiens (Human), UniProt P41594); test: mGlu5 NAM FLIPR Assay (Assay 1); format: cell-based; conditions: for IC50: HEK293 cells stably expressing human mGlu5a, antagonism of EC90 glutamate, [Ca]i
Description: A. mGlu5 NAM FLIPR Assay (Assay 1)
Activation of the mGluR5 receptor expressed in cell lines results in an increase in intracellular calcium concentration. Using calcium sensitive fluorescent dyes and a suited fluorescence plate reader this functional response is detectable and quantifiable. This technique could be used to characterize pharmacological modifications of the mGluR5 receptor.
[Ca]i measurements were performed in HEK293 cells stably expressing the full-length human mGlu5a receptor under the control of a tet-regulated promoter. Cells were cultivated in Dulbecco's modified eagle's medium (DMEM) with 10% fetal calf serum, 100 μg/ml HygromycinB, 500 μg/ml G418 and 2 μg/ml Tetracycline in a 37°, 95% humidity and 5% CO2 incubator. Confluent cell cultures were split on a bi-weekly schedule.
72 hours prior to the assay run mGluR5a expression was induced by replacing the culture medium by DMEM with 10% fetal calf serum without antibiotics. 24 hours prior to the assay run, cell medium was replaced after two wash steps by DMEM, 10% fetal calf serum without glutamine and phenol red. On the assay day, cells were detached from the culture flask by versene, washed, resuspended in a modified Ringer solution with 5 mM Glucose and 10 mM HEPES pH7.4, and plated on Poly-D-Lysine coated 384-well plates with a density of 10.000 cells/60 μl per well. After a seeding time of 1 hour in the incubator the cells were dye-loaded by adding 20 μl of a 4-fold concentrated dye solution from the Calcium 4 kit (Molecular Devices Inc., R8141) according to the manufacturer's manual and incubated for an additional 100 minutes. Compounds were prepared by a 11 point serial dilution in DMSO and a final dilution step into assay puffer (modified Ringer) to ensure a final DMSO concentration of 1% in the assay.
Measurements were done in a two-step procedure. A first measurement was performed directly after the addition of compounds to the cell plates to quantify and correct for compound related non specific effects (e.g. auto fluorescence). 5 minutes later, the antagonistic activities of the compounds were measured by addition of a EC90 concentration of the agonist glutamate (the EC90 concentration was controlled by glutamate dose-response curves). All measurements were done with a fluorimetric imaging plate reader (FLIPR, Molecular Devices Inc.).
IC50 values and Hill slopes were derived from 11-point four parametric non-linear curve fittings with the AssayExplorer software using peak heights of fluorescence signals.

11β-HSD1 = 11β-HSD1 (Homo sapiens (Human), UniProt P28845); test: 11β-hydroxysteroid dehydrogenase (HSD) 1 Assay (Assay 2), HTRF; format: biochemical; conditions: for IC50: human liver microsomes, cortisol generated from cortisone, HTRF, read-out: 11βHSD1 IC50
Description: The compounds of this invention or the physiological acceptable salts thereof were tested for their inhibitory effect on the enzyme 11β-hydroxysteroid dehydrogenase (HSD) 1.
B. 11β-hydroxysteroid dehydrogenase (HSD) 1 Assay (Assay 2)
Compounds were incubated for 1 hour at 37° C. in Tris buffer (20 mM tris, 5 mM EDTA, pH 6.0) containing NADPH (200 μM) and cortisone (80 nM). Cortisol generated in the reaction was then detected by a competitive immunoassay involving two HTRF conjugates: cortisol linked to XL665 and anticortisol antibody labeled with Europium cryptate. The incubation period for detection reaction was 2 hours. The amount of cortisol is determined by reading the time-resolved fluorescence of the wells (Ex 320/75 nm; Em 615/8.5 nm and 665/7.5 nm). The ratio of the two emission signals was then calculated (Em665*10000/Em615). […] Each assay also comprised a calibration curve with cortisol to transform the fluorescent data into cortisol concentrations.
Percent inhibition (% CTL) of each compound is determined relative to the carbenoxolone signal and IC50 curves were generated.

Sequence of human mGlu5a receptor (P41594 other isoform, or with tags, fused parts or gaps): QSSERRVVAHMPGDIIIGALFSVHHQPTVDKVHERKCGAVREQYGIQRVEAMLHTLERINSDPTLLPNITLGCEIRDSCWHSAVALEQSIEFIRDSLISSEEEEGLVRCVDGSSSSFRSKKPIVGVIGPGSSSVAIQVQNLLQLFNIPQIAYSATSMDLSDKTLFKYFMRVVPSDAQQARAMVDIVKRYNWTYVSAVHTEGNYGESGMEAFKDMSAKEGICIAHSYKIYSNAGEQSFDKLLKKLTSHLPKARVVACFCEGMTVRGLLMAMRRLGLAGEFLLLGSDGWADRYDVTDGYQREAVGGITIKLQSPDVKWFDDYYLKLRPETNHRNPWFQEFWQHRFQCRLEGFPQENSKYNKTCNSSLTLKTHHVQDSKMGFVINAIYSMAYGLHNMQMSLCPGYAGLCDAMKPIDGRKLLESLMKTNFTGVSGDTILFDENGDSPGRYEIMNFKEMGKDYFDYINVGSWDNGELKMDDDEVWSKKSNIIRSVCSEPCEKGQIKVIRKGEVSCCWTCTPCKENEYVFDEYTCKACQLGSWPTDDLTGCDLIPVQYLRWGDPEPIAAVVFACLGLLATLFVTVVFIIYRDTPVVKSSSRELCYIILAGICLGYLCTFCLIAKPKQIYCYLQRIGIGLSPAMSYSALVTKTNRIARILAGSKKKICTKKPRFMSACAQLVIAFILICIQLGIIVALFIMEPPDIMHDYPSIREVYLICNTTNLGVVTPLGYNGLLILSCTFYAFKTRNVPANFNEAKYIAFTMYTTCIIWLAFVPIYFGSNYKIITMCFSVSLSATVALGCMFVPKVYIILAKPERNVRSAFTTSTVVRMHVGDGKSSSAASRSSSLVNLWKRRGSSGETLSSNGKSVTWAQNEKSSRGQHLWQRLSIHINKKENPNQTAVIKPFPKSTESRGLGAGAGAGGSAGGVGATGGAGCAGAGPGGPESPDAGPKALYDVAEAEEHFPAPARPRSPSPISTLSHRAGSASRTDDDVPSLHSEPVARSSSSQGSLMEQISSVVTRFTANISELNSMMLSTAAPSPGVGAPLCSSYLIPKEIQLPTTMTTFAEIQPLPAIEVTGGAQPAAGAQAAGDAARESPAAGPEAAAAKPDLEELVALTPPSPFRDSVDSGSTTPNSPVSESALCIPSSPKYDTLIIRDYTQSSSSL
Sequence of 11β-HSD1 (P28845 whole entry): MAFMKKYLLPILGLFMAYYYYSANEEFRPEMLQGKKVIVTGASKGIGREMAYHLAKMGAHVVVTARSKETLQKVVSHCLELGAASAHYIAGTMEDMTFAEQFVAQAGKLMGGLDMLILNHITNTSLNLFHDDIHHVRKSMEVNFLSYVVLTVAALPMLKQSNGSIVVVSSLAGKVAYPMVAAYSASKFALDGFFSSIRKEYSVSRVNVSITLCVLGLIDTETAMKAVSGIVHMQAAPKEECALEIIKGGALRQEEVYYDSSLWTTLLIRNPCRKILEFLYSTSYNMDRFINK

Row | IC50 (human mGlu5a receptor) [nM] | IC50 (11β-HSD1) [nM] | activity in assay 1 (mGlu5), in words (human mGlu5a receptor) | activity on 11βHSD1 (assay 2), in words (11β-HSD1) | Compound
1 | 603 | > 10000 | – | – | O=C(c1cc2ncc(Br)cn2n1)N1CCc2cccnc2CC1 [Example 14, (6-Bromo-pyrazolo[1,5-a]pyrimidin-2-yl)-(5,6,8,9-tetrahydro-pyrido[2,3-d]azepin-7-yl)-methanone]
2 | 1280 | > 10000 | – | – | Cn1c2c(sc1=O)CCN(C(=O)c1cc3ncc(Br)cn3n1)CC2 [Example 16, 6-(6-Bromo-pyrazolo[1,5-a]pyrimidine-2-carbonyl)-3-methyl-3,4,5,6,7,8-hexahydro-thiazolo[4,5-d]azepin-2-one]
3 | 230 | > 10000 | – | – | COc1ccc2c(n1)CCN(C(=O)c1cc3ncc(Br)cn3n1)CC2 [Example 2, (6-Bromo-pyrazolo[1,5-a]pyrimidin-2-yl)-(2-methoxy-5,6,8,9-tetrahydro-pyrido[2,3-d]azepin-7-yl)-methanone]
4 | > 10000 | > 10000 | inactivity | inactivity | O=C(c1cc2ncc(Br)cn2n1)N1CCCCCC1 [B, reference compound]
5 | 148 | > 10000 | – | – | CC(C)c1nc2c(s1)CCN(C(=O)c1cc3ncc(Br)cn3n1)CC2 [Example 12, (6-Bromo-pyrazolo[1,5-a]pyrimidin-2-yl)-(2-isopropyl-4,5,7,8-tetrahydro-thiazolo[4,5-d]azepin-6-yl)-methanone]
6 | > 10000 | > 10000 | – | – | O=C(c1cc2ncc(Br)cn2n1)N1CCOCC1 [Example 4-22, reference compound]
7 | 550 | > 10000 | – | – | Cn1c2c(c3ccccc31)CCN(C(=O)c1cc3ncc(Br)cn3n1)CC2 [Example 17, (6-Bromo-pyrazolo[1,5-a]pyrimidin-2-yl)-(6-methyl-1,4,5,6-tetrahydro-2H-azepino[4,5-b]indol-3-yl)-methanone]
8 | > 10000 | > 10000 | – | – | COc1ccc(-c2cc(C(F)(F)F)n3nc(C(=O)N4CCc5ncsc5CC4)cc3n2)cc1 [C, reference compound]
9 | 692 | > 10000 | – | – | Cn1cnc2c1CCN(C(=O)c1cc3ncc(Br)cn3n1)CC2 [Example 15, (6-Bromo-pyrazolo[1,5-a]pyrimidin-2-yl)-(1-methyl-4,5,7,8-tetrahydro-1H-imidazo[4,5-d]azepin-6-yl)-methanone]

Second part, the compound before the results:

Row | Compound | IC50 (human mGlu5a receptor) [nM] | IC50 (11β-HSD1) [nM] | activity in assay 1 (mGlu5), in words (human mGlu5a receptor) | activity on 11βHSD1 (assay 2), in words (11β-HSD1)
10 | O=C(c1cc2ncc(Cl)cn2n1)N1CCc2[nH]c(=O)sc2CC1 [Example 19, 6-(6-Chloro-pyrazolo[1,5-a]pyrimidine-2-carbonyl)-3,4,5,6,7,8-hexahydro-thiazolo[4,5-d]azepin-2-one] | 128 | – | – | –
11 | O=C(c1cc2ncc(Br)cn2n1)N1CCc2ccc(Cl)nc2CC1 [Example 1, (6-Bromo-pyrazolo[1,5-a]pyrimidin-2-yl)-(2-chloro-5,6,8,9-tetrahydro-pyrido[2,3-d]azepin-7-yl)-methanone] | 146 | > 10000 | – | –
12 | COc1cccc(-c2cc(C(F)(F)F)n3nc(C(=O)N4CCc5ncsc5CC4)cc3n2)c1 [E, reference compound] | > 10000 | > 10000 | – | –
13 | Cc1cnc2cc(C(=O)N3CCc4ncsc4CC3)nn2c1 [Example 9] | 1420 | > 10000 | – | –
14 | Cc1cc(C(F)(F)F)n2nc(C(=O)N3CCc4ncsc4CC3)cc2n1 [D, reference compound] | > 10000 | > 10000 | – | –
15 | CCc1nc2c(s1)CCN(C(=O)c1cc3ncc(Br)cn3n1)CC2 [Example 4, (6-Bromo-pyrazolo[1,5-a]pyrimidin-2-yl)-(2-ethyl-4,5,7,8-tetrahydro-thiazolo[4,5-d]azepin-6-yl)-methanone] | 33 | > 10000 | – | –
16 | CC(C)c1nc2c(s1)CCN(C(=O)c1cc3ncc(Cl)cn3n1)CC2 [Example 18, (6-Chloro-pyrazolo[1,5-a]pyrimidin-2-yl)-(2-isopropyl-4,5,7,8-tetrahydro-thiazolo[4,5-d]azepin-6-yl)-methanone] | 235 | – | – | –
17 | O=C(c1cc2ncc(Br)cn2n1)N1CCc2cc(Cl)nnc2CC1 [Example 7, (6-Bromo-pyrazolo[1,5-a]pyrimidin-2-yl)-(3-chloro-5,6,8,9-tetrahydro-1,2,7-triaza-benzocyclohepten-7-yl)-methanone] | 340 | > 10000 | – | –
18 | (6-Bromo-pyrazolo[1,5-a]pyrimidin-2-yl)-(2-methyl-4,5,7,8-tetrahydro-3H-1lambda*4*-thiazolo[4,5-d]azepin-6-yl)-methanone [Example 6] | 43 | > 10000 | – | –
19 | COCc1nc2c(s1)CCN(C(=O)c1cc3ncc(Br)cn3n1)CC2 [Example 8, (6-Bromo-pyrazolo[1,5-a]pyrimidin-2-yl)-(2-methoxymethyl-4,5,7,8-tetrahydro-thiazolo[4,5-d]azepin-6-yl)-methanone] | 1540 | > 10000 | – | –
20 | O=C(c1cc2ncc(Br)cn2n1)N1CCCC1 [A, reference compound] | > 10000 | – | inactivity | inactivity
21 | O=C(c1cc2ncc(Br)cn2n1)N1CCc2ccsc2CC1 [Example 3, (6-Bromo-pyrazolo[1,5-a]pyrimidin-2-yl)-(4,5,7,8-tetrahydro-thieno[2,3-d]azepin-6-yl)-methanone] | 1380 | > 10000 | – | –
22 | O=C(c1cc2ncc(Br)cn2n1)N1CCCCC1 [Example 4-21, reference compound] | > 10000 | > 10000 | – | –
23 | O=C(c1cc2ncc(Br)cn2n1)N1CCc2ncsc2CC1 [Example 5, (6-Bromo-pyrazolo[1,5-a]pyrimidin-2-yl)-(4,5,7,8-tetrahydro-thiazolo[4,5-d]azepin-6-yl)-methanone] | 110 | > 10000 | – | –
24 | O=C(c1cc2ncc(Cl)cn2n1)N1CCc2ncsc2CC1 [Example 10, (6-Chloro-pyrazolo[1,5-a]pyrimidin-2-yl)-(4,5,7,8-tetrahydro-thiazolo[4,5-d]azepin-6-yl)-methanone] | 59 | > 10000 | – | –
25 | Cc1nc2c(s1)CCN(C(=O)c1cc3ncc(Cl)cn3n1)CC2 [Example 13, (6-Chloro-pyrazolo[1,5-a]pyrimidin-2-yl)-(2-methyl-4,5,7,8-tetrahydro-thiazolo[4,5-d]azepin-6-yl)-methanone] | 63 | > 10000 | – | –
26 | O=C(c1cc2ncc(Br)cn2n1)N1CCc2[nH]c(=O)sc2CC1 [Example 11, 6-(6-Bromo-pyrazolo[1,5-a]pyrimidine-2-carbonyl)-3,4,5,6,7,8-hexahydro-thiazolo[4,5-d]azepin-2-one] | 66 | > 10000 | – | –
